Test results from US20240366511A1, “ORAL SOLID DOSE FORMULATIONS” (GLAXOSMITHKLINE INTELLECTUAL PROPERTY DEVELOPMENT LIMITED, priority 2021, published 2024).
Counter-ions that a name gives are not always drawn. Like-named read-outs stand apart in the source and are kept apart here.

Experiments:
[1] = Solubility of gepotidacin mesylate dihydrate (Form 1) in water and simulated fluids; format: physicochemical; details: 20 °C, thermodynamic from solid, as free base, 20-25° C., read-out: Solubility (mg/mL of free base at 20-25° C.)
Method: The solubility of gepotidacin mesylate dihydrate (Form 1) was determined in simulated gastric fluid pH 1.6 (SGF), fasted state simulated intestinal fluid pH 6.5 (FaSSIF) and fed state simulated intestinal fluid pH 6.5 (FeSSIF) at ambient room temperature (20-25 C).

[2] = Stability of crystal form under ambient conditions; format: physicochemical
Method: In another preparation, a spatula (<20 mg) of gepotidacin mesylate dihydrate (Form 1) was suspended in IPA (<1.5 ml). The suspension was heated with a heat gun to dissolve most of the solids, and then left to slowly cool to room temperature. The resultant crystals were filtered and analysed by DSC, TGA, and XRPD.

solubility ([1]; Water)	solubility ([1]; fasted state simulated intestinal fluid (FaSSIF), FaSSIF (pH 6.5))	solubility ([1]; fed state simulated intestinal fluid (FeSSIF), FeSSIF (pH 6.5))	solubility ([1]; simulated gastric fluid (SGF), simulated gastric fluid, SGF (pH 1.6))	stability of the form [2]	Compound
> 180 mg/mL	113 mg/mL	99 mg/mL	175 mg/mL		O=c1ccc2ncc(=O)n3c2n1C[C@H]3CN1CCC(NCc2cc3c(cn2)OCCC3)CC1 [gepotidacin mesylate dihydrate (Form 1)]
				unstable under ambient conditions	CS(=O)(=O)O.O=c1cnc2ccc(=O)n3c2n1C[C@H]3CN1CCC(NCc2cc3c(cn2)OCCC3)CC1 [gepotidacin mesylate anhydrate]
